These results are taken from patent US8349841B2, “Vinyl-aryl derivatives for inflammation and immune-related uses” (Synta Pharmaceuticals Corp., priority 2007, dated 2013).

The subject of the test is IL-2 production. The test is described as follows: Inhibition of IL-2 production in PHA-activated Jurkat cells (ELISA). In kind it is cell-based. The note with it: Homo sapiens, PHA 2.5 μg/mL, 20 hours at 37° C., IL-2 ELISA. The protocol:
Jurkat cells were placed in a 96 well plate (0.5 million cells per well in 1% FBS medium) then a test compound of this invention was added at different concentrations. After 10 minutes, the cells were activated with PHA (final concentration 2.5 μg/mL) and incubated for 20 hours at 37° C. under CO2. The final volume was 200 μL. Following incubation, the cells were centrifuged and the supernatants collected and stored at −70° C. prior to assaying for IL-2 production. A commercial ELISA kit (IL-2 Eli-pair, Diaclone Research, Besancon, France) was used to detect production of IL-2, from which dose response curves were obtained. The IC50 value was calculated as the concentration at which 50% of maximum IL-2 production after stimulation was inhibited versus a non-stimulation control.
(In general: An ELISA detects its analyte on a solid surface through an enzyme-linked reagent.)

Where a name gives a salt, the structure may show the parent alone.

The compound `CC1=C(c2cnc(NC(=O)c3c(F)cccc3F)cn2)CN(c2ncccn2)CC1` [Compound 2, 2,6-difluoro-N-(5-(4-methyl-1-(pyrimidin-2-yl)-1,2,5,6-tetrahydropyridin-3-yl)pyrazin-2-yl)benzamide hydrochloride] showed an IC50 of 38 nM.

The compound `CC1=C(c2ccc(NC(=O)c3c(F)cccc3F)nc2)CN(C(=O)c2ccccn2)CC1` [Compound 4, 2,6-difluoro-N-(5-(4-methyl-1-picolinoyl-1,2,5,6-tetrahydropyridin-3-yl)pyridin-2-yl)benzamide hydrochloride] came in with an IC50 of 934 nM.

`C=CCOC(=O)N1CCC(c2ccc(NC(=O)c3c(F)cccc3F)cc2)=C(COC(C)=O)C1` [Compound 3, allyl 3-(acetoxymethyl)-4-(4-(2,6-difluorobenzamido)phenyl)-5,6-dihydropyridine-1(2H)-carboxylate] displayed an IC50 above 1000 nM.

`CCOC(=O)N1CCC(Cl)=C(c2ccc(NC(=O)c3c(F)cccc3F)cc2)C1` [Compound 6, ethyl 4-chloro-3-(4-(2,6-difluorobenzamido)phenyl)-5,6-dihydropyridine-1(2H)-carboxylate] yielded an IC50 of 66 nM.

As to `CCOC(=O)N1CCC(C)=C(c2ccc(NC(=O)c3c(F)cccc3F)nc2)C1` [Compound 1, ethyl 3-(6-(2,6-difluorobenzamido)pyridin-3-yl)-4-methyl-5,6-dihydropyridine-1(2H)-carboxylate], the IC50 was 30 nM.

Compound `CCOC(=O)N1CCC(c2ccc(NC(=O)c3c(F)cccc3F)cc2)=C(COC(C)=O)C1` [Compound 5, ethyl 3-(acetoxymethyl)-4-(4-(2,6-difluorobenzamido)phenyl)-5,6-dihydropyridine-1(2H)-carboxylate] registered an IC50 above 1000 nM.

For orientation: IC50 means the midpoint of a concentration-inhibition curve. Read a high IC50 as weaker potency.
